Experimental data from patent publication US6346406B1, “Elongation factor-2 kinase (EF-2 kinase), and methods of use therefor” (University of Medicine & Dentistry of New Jersey, priority 1997, dated 2002).

Assays:
[1] = system: recombinant human eEF-2 kinase; assay: eEF-2 kinase activity assay: phosphorylation of rabbit reticulocyte eEF-2 with [γ-32P]ATP, SDS/PAGE and autoradiography; assay type: biochemical; conditions: kinase expressed in coupled transcription/translation system, assayed without further purification; 20 μM antagonist is printed in the FIG. 3 legend for panel C
Experimental: FIG. 3. Activity of recombinant eEF-2 kinase in vitro. A large scale (0.5 ml) reaction using a mixture of Cefk-1 and Cefk-2 plasmids was run as in FIG. 2, with the omission of labeled methionine. In the control experiment, the reaction was run with a plasmid containing a luciferase gene. (A) The reaction mixtures were separated by chromatography on a Mono Q column as described. (B) eEF-2 kinase activity in fractions was measured as the ability to phosphorylate purified rabbit eEF-2 in the presence of [γ-^32 P]ATP. Purified rabbit reticulocyte eEF-2 kinase was used in the (+) control experiments. (C) Ca^2+/calmodulin-dependency of recombinant C. elegans eEF-2 kinase. Mono Q fraction 25 was assayed in a standard eEF-2 kinase assay in the presence and absence of Ca^2+ and calmodulin and 20 μM trifluoperazine (TFP) or N-(6 aminohexyl)-5-chloro-1-napthalene-sulfonamide (W7). (D) Ca^2+/calmodulin-dependency of recombinant human eEF-2 kinase. […]
To assay for eEF-2 kinase activity, 5 μl from each fraction was added to a reaction mixture (40 μl) containing 50 mM Hepes-KOH (ph. 7.4) 10 mM magnesium acetate, 0.1 mM CaCl2, 5 mM dithiothreitol, 50 μM ATP, 2 μCi [γ-^32P]ATP, 0.6 μg calmodulin, and 0.5 μg rabbit reticulocyte eEF-2. […] Phosphoproteins were analyzed by autoradiography. […]

recombinant eEF-2 kinase = biological target: T1, recombinant eEF-2 kinase (Homo sapiens, UniProt O00418); assay: eEF-2 kinase activity assay using a 16-amino acid peptide derived from myosin heavy chain as the phosphorylation target; assay type: biochemical; conditions: [γ-33P]ATP, 30° C., phosphocellulose paper, scintillation counting
T1 construct: one of GST (pGEX-2T), 6xHis (pRSET A) or thioredoxin (pThioHisB); made in house; host or cells: Escherichia coli BL21(DE3)
Experimental: FIG. 8. Assay for eEF-2 kinase activity. Recombinant eEF-2 kinase (2 μg) was incubated with increasing concentrations of a peptide phosphorylation target (RKKGESEKTKTKEFL) in a buffer consisting of 12.5 mM Hepes-KOH (pH 7.4), 2.5 mM magnesium acetate, 1.25 mM DTT, 25 μM CaCl2, 0.5 μg calmodulin, 100 μM ATP, and 0.5 μCi [γ-^33P]ATP in a total volume of 50 μl. Samples were incubated at 30° C. and aliquots were withdrawn at various time points, and the reaction was terminated by incubation in an ice water bath. The aliquots were then spotted onto phosphocellulose paper (2 cm×2 cm) and washed (4×4 min) with 75 mM phosphoric acid. The papers were then rinsed with 100% ethanol, dried, and then counted in a scintillation counter.
Human eEF-2 kinase cDNA was cloned into three different expression vectors: pGEX-2T (Pharmacia Biotech, Piscataway, N.J.); pRSET A (Invitrogen, Sorrento Valley, Calif.); and, pThioHisB (Invitrogen). After transformation into Escherichia coli strain BL21(DE3), transformants were cultured in LB broth containing 50 μg/ml ampicillin. When the cultured reached an A600 value of 0.7, isopropyl-β-thiogalactopyranoside (IPTG) was added to the bacterial cultures to a final concentration of […] to induce expression. […] The refolded protein was analyzed by SDS-PAGE and assayed for the ability to phosphorylate eEF-2. […]

inhibition of recombinant human eEF-2 kinase activity by calmodulin antagonists [1]	ability to serve as substrate (phosphoacceptor) for eEF-2 kinase (recombinant eEF-2 kinase)	Compound
completely inhibited	–	NCCCCCCNS(=O)(=O)c1cccc2c(Cl)cccc12 [N-(6-aminohexyl)-5-chloro-1-napthalene-sulfonamide]
completely inhibited	–	CN1CCN(CCCN2c3ccccc3Sc3ccc(C(F)(F)F)cc32)CC1 [trifluoperazine]
–	good substrate	RKKFGESEKTKTKEFL [16-mer peptide based on the phosphorylation site of Dictyostelium discoideum MHC, substrate for eEF-2 kinase]
